According to patent US9468632B2, “Methods and compositions for targeting cancer stem cells” (The Regents of the University of Michigan, priority 2012, dated 2016):
Residue numbers refer to the chain shown, from its start.

Legend:
ALDH1A1 (WT) = molecular target: T1, ALDH1A1 (WT) (Homo sapiens, UniProt P00352); experiment: In vitro enzymatic inhibition assay, ALDH1A1 (WT); type: biochemical
T1 sequence (P00352 1-501): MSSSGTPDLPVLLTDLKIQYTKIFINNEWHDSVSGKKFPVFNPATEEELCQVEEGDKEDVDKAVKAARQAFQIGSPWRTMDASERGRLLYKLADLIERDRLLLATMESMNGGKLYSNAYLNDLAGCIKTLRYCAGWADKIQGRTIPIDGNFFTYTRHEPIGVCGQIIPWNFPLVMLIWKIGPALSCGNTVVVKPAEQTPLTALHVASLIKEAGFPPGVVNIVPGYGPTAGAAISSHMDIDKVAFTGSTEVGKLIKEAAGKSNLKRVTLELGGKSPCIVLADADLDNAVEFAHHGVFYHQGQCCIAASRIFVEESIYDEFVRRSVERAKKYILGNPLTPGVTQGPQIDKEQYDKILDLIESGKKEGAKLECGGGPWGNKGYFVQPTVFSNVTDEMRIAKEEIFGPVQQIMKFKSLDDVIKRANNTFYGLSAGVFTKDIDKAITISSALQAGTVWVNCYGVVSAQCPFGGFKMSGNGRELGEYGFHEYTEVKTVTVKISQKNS

ALDH1A1 (S121) = molecular target: T2, ALDH1A1 (S121) (Homo sapiens, UniProt P00352, N121S); experiment: In vitro enzymatic inhibition assay, ALDH1A1 (S121); type: biochemical
T2 sequence (P00352 1-501 N121S): T1 sequence (P00352 1-501) with N121S

ALDH1A2 = molecular target: T3, ALDH1A2 (Homo sapiens, UniProt O94788); experiment: In vitro enzymatic inhibition assay, ALDH1A2; type: biochemical
T3 sequence (O94788 1-518): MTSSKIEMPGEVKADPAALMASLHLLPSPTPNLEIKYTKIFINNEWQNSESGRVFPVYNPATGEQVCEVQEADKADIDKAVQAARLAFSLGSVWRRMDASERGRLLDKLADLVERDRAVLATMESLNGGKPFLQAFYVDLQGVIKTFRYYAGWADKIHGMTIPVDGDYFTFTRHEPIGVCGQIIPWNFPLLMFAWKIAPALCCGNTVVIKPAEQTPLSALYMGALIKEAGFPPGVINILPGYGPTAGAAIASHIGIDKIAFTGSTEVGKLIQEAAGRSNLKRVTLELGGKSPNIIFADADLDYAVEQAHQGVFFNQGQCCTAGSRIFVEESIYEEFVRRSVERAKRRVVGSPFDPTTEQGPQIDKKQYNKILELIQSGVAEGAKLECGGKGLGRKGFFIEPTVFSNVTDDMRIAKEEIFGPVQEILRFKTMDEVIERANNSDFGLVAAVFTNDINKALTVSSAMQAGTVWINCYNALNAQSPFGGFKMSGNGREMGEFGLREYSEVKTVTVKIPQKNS

ALDH1A3 = molecular target: T4, ALDH1A3 (Homo sapiens, UniProt P47895); experiment: In vitro enzymatic inhibition assay, ALDH1A3; type: biochemical; conditions: 2 min incub
T4 sequence (P47895 1-512): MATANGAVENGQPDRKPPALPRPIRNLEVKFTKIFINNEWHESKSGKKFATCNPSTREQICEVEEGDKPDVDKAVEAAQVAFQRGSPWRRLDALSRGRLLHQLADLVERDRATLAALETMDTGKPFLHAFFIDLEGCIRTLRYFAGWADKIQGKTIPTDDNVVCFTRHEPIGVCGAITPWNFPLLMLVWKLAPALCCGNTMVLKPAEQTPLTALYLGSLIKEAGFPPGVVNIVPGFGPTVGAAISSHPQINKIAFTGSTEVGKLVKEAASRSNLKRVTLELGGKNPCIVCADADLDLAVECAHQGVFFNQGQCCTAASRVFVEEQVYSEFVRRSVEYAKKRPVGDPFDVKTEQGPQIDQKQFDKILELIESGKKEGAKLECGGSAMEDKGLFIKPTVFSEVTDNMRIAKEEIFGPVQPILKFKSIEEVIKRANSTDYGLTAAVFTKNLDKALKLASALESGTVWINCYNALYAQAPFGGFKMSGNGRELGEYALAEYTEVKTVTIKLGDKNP

ALDH2 = ALDH2 (Homo sapiens, UniProt P05091); experiment: In vitro enzymatic inhibition assay, ALDH2; type: biochemical
ALDH+ cells = experiment: Time to recovery after treatment, isolated ALDH+ cells; type: cell-based
Description: (§1) A. Time to recovery for SKOV3 ovarian cancer cells treated with cisplatin or combined cisplatin and ALDH inhibitor. […] Cisplatin treated ALDH+ cells required approximately 6 days to recover whereas cisplatin treated ALDH− cells required 14 days to recover.

ALDH− cells = experiment: Time to recovery after treatment, isolated ALDH− cells; type: cell-based
Description: as §1

[1] = system: in vitro treated, PI-/Annexin-FACS isolated live cells; experiment: Tumor initiation capacity of in vitro treated live cells injected into mice; type: in vivo
Protocol: An important functional aspect of a cancer stem cell is the ability to initiate tumors with limited cell numbers. In order to determine if UM673 could impact tumor initiation, cells were treated in vitro with a single dose of UM673 alone or in combination with cisplatin. Cells were allowed to recover for three days and then PI(−)/Annexin(−) live cells were faxed isolated and injected into mice. 200, 1000, or 5000 cells from each treatment group (n=4-10/group) were injected.

[2] = system: A2780 tumor cell xenografts; experiment: A2780 tumor cell xenografts, tumor growth; type: in vivo, mice; conditions: unsorted A2780 cells, treatment from day 3
Protocol: 6-8 week old nude female mice were purchased from Charles River Laboratories. All xenograft experiments were performed with approval of the University Committee on Use and Care of Animals of the University of Michigan. To generate tumors, 7.5×10^4 unsorted A2780 cells or 7500 CD133+ sorted A2780 cells were combined with 100 μl of DPBS and 100 μl of Matrigel (BD Biosciences), and then implanted subcutaneously into bilateral axillae of each mouse. 3 days after inoculation with tumors, mice were given an intra-peritoneal injection of (1) control DMSO 40 μl, (2) Cisplatin 250 μg/ml, (3) UM #673 10 μM, or (4) Cisplatin plus UM #673 (n=9 mice per treatment group). Tumor growth was measured using calipers, and tumor volume was calculated based on the modified ellipsoid formula (L×W×W/2), where L is the length and W is the width of the tumor. The mice were euthanized when tumors reached 1.5 to 2 cm^3 and animal safety euthanasia guidelines were met. Intraperitoneal tumors were generated using 5×10^6 OVCAR8 in […] of PBS and injected I.P. 3 days after inoculation, mice were given intra-peritoneal injection of Cisplatin or Cisplatin plus UM #673.
The impact of UM673 as a single agent was evaluated. NOD/SCID mice were inoculated with 1×10^5 unsorted A2780 cells and treatment was initiated three days after tumor inoculation with either vehicle control or UM #673. […] This is consistent with other studies of CSC targeting agents.
The experiments were repeated in combination with cisplatin. In addition, xenografts from both whole cell line and FACS isolated CD133+ cells were treated.

[3] = system: primary human tumor xenografts; experiment: Primary human tumor xenografts from chemotherapy refractory ovarian cancer; type: in vivo, mice; conditions: treatment started at ˜500 mm^3
Description: In order to confirm in vivo activity against primary ovarian cancers, primary human tumor xenografts were generated from a patient with chemotherapy refractory ovarian cancer. Xenografts were allowed to grow until they reached ˜500 mm^3, and then treatment with either vehicle, cisplatin or cisplatin and UM 673 was initiated. […] After discontinuation of therapy, tumor regrowth was observed after approximately 4 weeks (FIG. 5D).

Chain of ALDH2 (P05091 18-517): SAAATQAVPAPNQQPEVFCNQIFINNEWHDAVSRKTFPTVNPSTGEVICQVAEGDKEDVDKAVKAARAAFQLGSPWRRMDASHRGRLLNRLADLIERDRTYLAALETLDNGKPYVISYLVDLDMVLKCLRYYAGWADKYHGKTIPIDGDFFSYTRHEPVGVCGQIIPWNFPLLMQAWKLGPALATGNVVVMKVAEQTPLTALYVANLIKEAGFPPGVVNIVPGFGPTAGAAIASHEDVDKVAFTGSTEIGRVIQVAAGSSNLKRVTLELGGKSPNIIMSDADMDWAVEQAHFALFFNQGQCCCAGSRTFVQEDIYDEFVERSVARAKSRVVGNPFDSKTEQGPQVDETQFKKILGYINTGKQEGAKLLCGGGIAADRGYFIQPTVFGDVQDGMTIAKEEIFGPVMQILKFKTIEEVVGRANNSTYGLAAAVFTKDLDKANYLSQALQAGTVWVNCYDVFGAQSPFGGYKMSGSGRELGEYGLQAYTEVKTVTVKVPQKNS

Structure (SMILES)	IC50 (ALDH1A1 (WT))	IC50 (ALDH1A1 (S121))	IC50 (ALDH1A2)	IC50 (ALDH1A3)	IC50 (ALDH2)	time to recover back to initial cell levels (ALDH+ cells)	time to recover (ALDH− cells)	tumor initiation (tumors/injections) ([1]; 200 cells injected)	tumor initiation (tumors/injections) ([1]; 1000 cells injected)	tumor initiation (tumors/injections) ([1]; 5000 cells injected)	effect on tumor initiation capacity ([1]; compared to untreated controls)	tumor growth [2]	tumor growth [3]
Cc1cc(N2Cc3ccccc3C2)ccc1C=O [673A]	216 ± 22 nM	230 ± 10 nM	211 ± 36 nM	170 ± 28 nM	1680 ± 190 nM								
O=Cc1ccc(N2Cc3ccccc3C2)cc1 [673B]	450 ± 35 nM	1240 ± 118 nM	800 ± 147 nM	1340 ± 480 nM	> 20000 nM								
N.N.[Cl][Pt][Cl] [Cisplatin, reference compound]						approximately 6 days	14 days	1/4	4/4	8/8	neither cisplatin or UM673 affected tumor initiation	modest restrictions in tumor growth	no effect on tumor growth
